Source: patent publication US20140193338A1, “COMPOUNDS FOR USE IN IMAGING, DIAGNOSING AND/OR TREATMENT OF DISEASES OF THE CENTRAL NERVOUS SYSTEM” (PIRAMAL IMAGING SA, priority 2011, published 2014)
“Also recorded” adds a separate entry of the source.

Columns and labels:
[1] = test system: MAO-B; test: PET brain time activity curves (SUV) in cynomolgus monkeys; format: in vivo, cynomolgus monkey
Protocol: One monkey weighing 6.3 kg was injected i.v. with 163 MBq [^18F]rasagiline (compound F) under sevofluorane anaesthesia.
Two cynomolgus monkeys weighting 5.25 and 6.2 kg, respectively were investigated. They were injected i.v. under sevofluorane anaesthesia with 168 MBq and 174 MBq [^18F],(^2H2)rasagiline (1), respectively.

[2] = Blood radioactivity / metabolite profile by radio-HPLC after tracer injection; format: in vivo, cynomolgus monkey; details: for number of ^18F labelled metabolites detected: plasma, radio-HPLC, over the time of the investigation
Source text: In addition, the blood radioactivity profiles have been monitored over time using radio-HPLC measurements and were decay corrected (d.c.) (FIGS. 4 and 5).

[3] = target: T1, MAO-B (Homo sapiens, UniProt P27338); test: Autoradiography with [^18F]rasagiline on human brain sections, blocking with excess inhibitor; format: binding
T1 construct: Autoradiography using [^18F]rasagiline on human brain slices from a healthy subject; from tissue; host or cells: human brain hemisphere cryosections (100 µm)
T1 sequence (P27338 1-520): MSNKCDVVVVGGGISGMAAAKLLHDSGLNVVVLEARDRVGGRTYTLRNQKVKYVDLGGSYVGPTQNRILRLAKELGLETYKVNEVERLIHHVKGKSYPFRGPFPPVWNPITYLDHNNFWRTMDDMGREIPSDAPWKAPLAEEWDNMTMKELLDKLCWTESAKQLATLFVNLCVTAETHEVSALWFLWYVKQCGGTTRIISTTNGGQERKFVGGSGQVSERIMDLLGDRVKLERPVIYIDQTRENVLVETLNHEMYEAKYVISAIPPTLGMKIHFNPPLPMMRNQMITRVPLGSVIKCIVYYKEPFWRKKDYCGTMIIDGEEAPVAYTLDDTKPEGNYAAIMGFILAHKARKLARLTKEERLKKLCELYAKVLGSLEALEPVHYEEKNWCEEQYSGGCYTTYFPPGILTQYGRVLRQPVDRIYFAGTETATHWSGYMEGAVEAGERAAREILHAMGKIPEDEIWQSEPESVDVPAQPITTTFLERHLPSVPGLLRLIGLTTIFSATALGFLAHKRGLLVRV
Protocol: Binding of the [^18F]rasagiline (compound of formula F) was investigated on human brain sections from normal subjects using a standard protocol.
In brief, whole brain hemispheres were cut at a 100 μm thickness in a Cryocut (Leica, Germany), thaw mounted onto gelatine glass slides and kept at −25° C. before use. Thereafter, the slides containing the regions of interest (e.g. hippocampus, thalamus) were removed and brought to room temperature. The sections were incubated with 0.2 MBq/mL [^18F] compound F in 50 mM TRIS/0.1% BSA (pH 7.4) with salts (120 mM NaCl, 5 mM KCl, 1 mM CaCl2, 1 mM MgCl2) for 90 min at room temperature and washed three times for 5 min each in 50 mM TRIS (pH 7.4). The sections were dipped once into ice cold distilled water, dried at room temperature and exposed to PhosphorImager plates (FUJI BAS 5000) overnight.

[4] = pre-treated with 0.5 mg/kg (L)-deprenyl

[2H]C([2H])(C#C)N[C@H]1c2ccccc2C[C@@H]1[18F] [compound 1, (1S,2S)-2-[^18F]fluoro-N-[(1,1-^2H2)prop-2-yn-1-yl]indan-1-amine]
initial uptake in whole brain relative to [^18F]rasagiline (compound F) ([1]; i.v., PET): comparable to that of [^18F]rasagiline (compound F) | decrease in uptake after deprenyl pre-treatment, Cerebellum [1, 4]: 46% | decrease in uptake after deprenyl pre-treatment, Striatum [1, 4]: 45% | decrease in uptake after deprenyl pre-treatment, Thalamus [1, 4]: 47% | decrease in uptake after deprenyl pre-treatment, cortex [1, 4]: 40% | brain elimination behaviour after initial uptake ([1]; whole brain TAC): eliminated in a manner resembling that of a reversible ligand | metabolite corrected blood radioactivity time curve compared to the non-deuterated compound ([2]; decay corrected): slower elimination; also recorded: increased blood radioactivity over time | number of ^18F labelled metabolites detected [2]: two

C#CCN[C@H]1c2ccccc2C[C@@H]1[18F] [compound F, reference compound]
specificity of the ligand ([3]; conclusion from blocking experiments): specifically interacting with MAO-B | autoradiography signal in brain regions with known MAO-B activity ([3]; human brain slices, healthy subject, globus pallidus, putamen, caudate, thalamus, hippocampus, 0.2 MBq/mL, 90 min): high signal intensity | initial brain uptake, striatal (caudate and putamen) and thalamic ROI ([1]; i.v., PET): ca. 400 % SUV | initial brain uptake, whole brain ([1]; i.v., PET): ca. 280 % SUV | increase of whole brain signal over time ([1]; until the end of the observation time): about 35 % SUV | whole brain level after slight elimination ([1]; within 15 minutes): ca. 225 % SUV | number of ^18F labelled metabolites detected [2]: eight

C#CCN[C@@H]1CCc2ccccc21 [rasagiline]
blocking of the [^18F]rasagiline (compound F) autoradiography signal ([3]; excess (10 μM) of the inhibitor in the incubation solution): completely blocked
